Assay results as given in ChEMBL document CHEMBL1146943, “Synthesis, in vitro and in vivo evaluation of [O-methyl-11C] 2-{4-[4-(3-methoxyphenyl)piperazin-1-yl]-butyl}-4-methyl-2H-[1,2,4]-triazine-3,5-dione: a novel agonist 5-HT1A receptor PET ligand” (Bioorg Med Chem Lett, 2006).

Columns and labels:
[1] = biological target: D(2) dopamine receptor (Homo sapiens, UniProt P14416); assay: Binding affinity to D2 dopamine receptor by radioligand binding assay
[2] = biological target: D(1B) dopamine receptor (Homo sapiens, UniProt P21918); assay: Binding affinity to D5 dopamine receptor by radioligand binding assay
[3] = biological target: Adenosine receptor A1 (Homo sapiens, UniProt P30542); assay: Binding affinity to adenosine A1 receptor by radioligand binding assay
[4] = biological target: Adenosine A2 receptor (Homo sapiens, UniProt P29275+P29274); assay: Binding affinity to adenosine A2 receptor by radioligand binding assay; type: protein assay
[5] = biological target: Adenosine receptor A3 (Homo sapiens, UniProt P0DMS8); assay: Binding affinity to adenosine A3 receptor by radioligand binding assay
[6] = biological target: Adenosine receptor A2a (Homo sapiens, UniProt P29274); assay: Binding affinity to adenosine […] receptor by radioligand binding assay
[7] = biological target: Voltage-gated inwardly rectifying potassium channel KCNH2 (Homo sapiens, UniProt Q12809); assay: Binding affinity to hERG by radioligand binding assay
[8] = biological target: Serotonin 3 (5-HT3) receptor; assay: Binding affinity to 5HT3 receptor by radioligand binding assay; type: protein-complex assay, Homo sapiens
[9] = Binding affinity to mGluR by radioligand binding assay; parameters: species or system Homo sapiens
[10] = Binding affinity to NK receptor by radioligand binding assay
[11] = Binding affinity to calcium channel by radioligand binding assay
[12] = system: Baboon; assay: Penetration through blood-brain barrier in baboon; type: ADME, organism-based, Papio; conditions: in vivo
[13] = Binding affinity to sodium channel by radioligand binding assay
[14] = biological target: Sodium-dependent dopamine transporter (Homo sapiens, UniProt Q01959); assay: Binding affinity to DAT by radioligand binding assay
[15] = biological target: 5-hydroxytryptamine receptor 6 (Homo sapiens, UniProt P50406); assay: Binding affinity to 5HT6 receptor by radioligand binding assay
[16] = biological target: 5-hydroxytryptamine receptor 5A (Homo sapiens, UniProt P47898); assay: Binding affinity to 5HT5A receptor by radioligand binding assay
[17] = biological target: Delta-type opioid receptor (Homo sapiens, UniProt P41143); assay: Binding affinity to DOR by radioligand binding assay
[18] = biological target: Sodium-dependent noradrenaline transporter (Homo sapiens, UniProt P23975); assay: Binding affinity to NET by radioligand binding assay
[19] = biological target: Glutamate receptor ionotropic AMPA (Homo sapiens, UniProt P42261+P42262+P42263+P48058); assay: Binding affinity to AMPA receptor by radioligand binding assay; type: protein-complex assay
[20] = Binding affinity to VMAT by radioligand binding assay
[21] = biological target: GABA-A receptor; anion channel; assay: Binding affinity to GABA receptor by radioligand binding assay; type: protein-complex assay
[22] = biological target: Translocator protein (Homo sapiens, UniProt P30536); assay: Binding affinity to BZP receptor by radioligand binding assay
[23] = biological target: Kappa-type opioid receptor (Homo sapiens, UniProt P41145); assay: Binding affinity to KOR by radioligand binding assay
[24] = biological target: ATP-dependent translocase ABCB1 (Homo sapiens, UniProt P08183); assay: Binding affinity to MDR1 by radioligand binding assay
[25] = biological target: Histamine H2 receptor (Homo sapiens, UniProt P25021); assay: Binding affinity to histamine H2 receptor by radioligand binding assay
[26] = Binding affinity to EP receptor by radioligand binding assay
[27] = biological target: 5-hydroxytryptamine receptor 1E (Homo sapiens, UniProt P28566); assay: Binding affinity to 5HT1E receptor by radioligand binding assay
[28] = biological target: D(3) dopamine receptor (Homo sapiens, UniProt P35462); assay: Binding affinity to D3 receptor by radioligand binding assay
[29] = biological target: D(4) dopamine receptor (Homo sapiens, UniProt P21917); assay: Binding affinity to D4 receptor by radioligand binding assay
[30] = biological target: Histamine H3 receptor (Homo sapiens, UniProt Q9Y5N1); assay: Binding affinity to histamine H3 receptor by radioligand binding assay
[31] = biological target: Histamine H4 receptor (Homo sapiens, UniProt Q9H3N8); assay: Binding affinity to histamine H4 receptor by radioligand binding assay
[32] = biological target: Glutamate receptor ionotropic kainate; assay: Binding affinity to KAR by radioligand binding assay; type: protein-complex assay
[33] = biological target: Muscarinic acetylcholine receptor; assay: Binding affinity to M receptor by radioligand binding assay; type: protein assay
[34] = biological target: Glutamate [NMDA] receptor; assay: Binding affinity to NMDA receptor by radioligand binding assay; type: protein-complex assay
[35] = Binding affinity to V receptor by radioligand binding assay
[36] = biological target: Sigma non-opioid intracellular receptor 1 (Homo sapiens, UniProt Q99720); assay: Binding affinity to sigma1 opioid receptor by radioligand binding assay
[37] = biological target: 5-hydroxytryptamine receptor 1B (Homo sapiens, UniProt P28222); assay: Binding affinity to 5HT1B receptor by radioligand binding assay
[38] = biological target: Alpha-2A adrenergic receptor (Homo sapiens, UniProt P08913); assay: Binding affinity to alpha 2A adrenergic receptor by radioligand binding assay
[39] = biological target: 5-hydroxytryptamine receptor 7 (Homo sapiens, UniProt P34969); assay: Binding affinity to 5HT7 receptor by radioligand binding assay
[40] = biological target: Alpha-1B adrenergic receptor (Homo sapiens, UniProt P35368); assay: Binding affinity to alpha 1B adrenergic receptor by radioligand binding assay
[41] = biological target: Alpha-1A adrenergic receptor (Homo sapiens, UniProt P35348); assay: Binding affinity to alpha 1A adrenergic receptor by radioligand binding assay
[42] = biological target: Histamine H1 receptor (Homo sapiens, UniProt P35367); assay: Binding affinity to histamine H1 receptor by radioligand binding assay
[43] = biological target: 5-hydroxytryptamine receptor 2A (Homo sapiens, UniProt P28223); assay: Binding affinity to 5HT2A receptor by radioligand binding assay
[44] = biological target: Sodium-dependent serotonin transporter (Homo sapiens, UniProt P31645); assay: Binding affinity to SERT by radioligand binding assay
[45] = biological target: T1, 5-hydroxytryptamine receptor 1A (Homo sapiens, UniProt P08908); assay: Agonist activity assessed by stimulation of [35S]GTP-gamma-S binding to human 5HT1A receptor expressed in CHO cells; type: functional, cell-based
[46] = biological target: T1, 5-hydroxytryptamine receptor 1A; assay: Binding affinity to 5HT1A receptor by radioligand binding assay
[47] = biological target: 5-hydroxytryptamine receptor 2B (Homo sapiens, UniProt P41595); assay: Binding affinity to 5HT2B receptor by radioligand binding assay
[48] = biological target: Alpha-2C adrenergic receptor (Homo sapiens, UniProt P18825); assay: Binding affinity to alpha 2C adrenergic receptor by radioligand binding assay
[49] = biological target: 5-hydroxytryptamine receptor 1A (Homo sapiens) (UniProt P08908); assay: Agonist activity assessed by stimulation of [35S]GTP-gamma-S binding to human 5HT1A receptor expressed in CHO cells relative to 5-HT; type: functional, cell-based
Sequence of 5-hydroxytryptamine receptor 1A (Homo sapiens) (P08908 whole entry): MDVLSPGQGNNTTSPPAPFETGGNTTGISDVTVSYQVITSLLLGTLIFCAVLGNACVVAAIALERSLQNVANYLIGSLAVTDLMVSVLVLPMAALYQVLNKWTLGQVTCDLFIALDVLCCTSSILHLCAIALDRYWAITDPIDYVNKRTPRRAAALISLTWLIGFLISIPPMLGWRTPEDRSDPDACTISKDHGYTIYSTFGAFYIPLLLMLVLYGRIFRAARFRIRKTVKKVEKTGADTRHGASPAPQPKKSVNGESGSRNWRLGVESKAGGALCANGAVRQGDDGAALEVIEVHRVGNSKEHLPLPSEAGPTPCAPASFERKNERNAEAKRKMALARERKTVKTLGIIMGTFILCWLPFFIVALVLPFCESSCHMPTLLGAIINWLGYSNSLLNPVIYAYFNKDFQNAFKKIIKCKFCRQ

T1 sequence (P08908 whole entry): as above
Sequence of Alpha-2C adrenergic receptor (P18825 whole entry): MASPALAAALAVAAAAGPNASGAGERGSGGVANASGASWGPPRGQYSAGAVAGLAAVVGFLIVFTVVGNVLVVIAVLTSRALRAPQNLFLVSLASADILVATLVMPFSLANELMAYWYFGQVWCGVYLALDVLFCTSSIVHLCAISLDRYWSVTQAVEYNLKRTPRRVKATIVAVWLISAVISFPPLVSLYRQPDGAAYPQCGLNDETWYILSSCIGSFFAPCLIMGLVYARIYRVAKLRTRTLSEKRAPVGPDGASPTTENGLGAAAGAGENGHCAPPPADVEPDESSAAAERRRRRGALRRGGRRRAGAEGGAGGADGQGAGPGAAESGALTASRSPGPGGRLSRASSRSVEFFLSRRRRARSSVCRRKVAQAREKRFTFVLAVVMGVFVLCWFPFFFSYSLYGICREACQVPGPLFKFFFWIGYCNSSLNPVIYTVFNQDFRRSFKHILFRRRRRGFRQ
Sequence of D(2) dopamine receptor (P14416 whole entry): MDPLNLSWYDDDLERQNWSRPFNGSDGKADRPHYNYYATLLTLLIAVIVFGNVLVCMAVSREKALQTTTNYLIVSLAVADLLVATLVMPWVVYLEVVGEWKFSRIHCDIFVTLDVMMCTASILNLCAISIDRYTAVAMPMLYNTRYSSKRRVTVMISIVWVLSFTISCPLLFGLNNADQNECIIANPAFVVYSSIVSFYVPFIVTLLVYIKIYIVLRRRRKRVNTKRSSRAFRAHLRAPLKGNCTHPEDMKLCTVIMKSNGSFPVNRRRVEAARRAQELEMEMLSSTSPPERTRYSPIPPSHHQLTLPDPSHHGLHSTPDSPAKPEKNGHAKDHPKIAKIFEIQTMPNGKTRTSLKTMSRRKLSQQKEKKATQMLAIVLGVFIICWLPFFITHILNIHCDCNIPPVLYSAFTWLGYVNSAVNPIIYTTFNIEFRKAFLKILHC
Sequence of Sodium-dependent dopamine transporter (Q01959 whole entry): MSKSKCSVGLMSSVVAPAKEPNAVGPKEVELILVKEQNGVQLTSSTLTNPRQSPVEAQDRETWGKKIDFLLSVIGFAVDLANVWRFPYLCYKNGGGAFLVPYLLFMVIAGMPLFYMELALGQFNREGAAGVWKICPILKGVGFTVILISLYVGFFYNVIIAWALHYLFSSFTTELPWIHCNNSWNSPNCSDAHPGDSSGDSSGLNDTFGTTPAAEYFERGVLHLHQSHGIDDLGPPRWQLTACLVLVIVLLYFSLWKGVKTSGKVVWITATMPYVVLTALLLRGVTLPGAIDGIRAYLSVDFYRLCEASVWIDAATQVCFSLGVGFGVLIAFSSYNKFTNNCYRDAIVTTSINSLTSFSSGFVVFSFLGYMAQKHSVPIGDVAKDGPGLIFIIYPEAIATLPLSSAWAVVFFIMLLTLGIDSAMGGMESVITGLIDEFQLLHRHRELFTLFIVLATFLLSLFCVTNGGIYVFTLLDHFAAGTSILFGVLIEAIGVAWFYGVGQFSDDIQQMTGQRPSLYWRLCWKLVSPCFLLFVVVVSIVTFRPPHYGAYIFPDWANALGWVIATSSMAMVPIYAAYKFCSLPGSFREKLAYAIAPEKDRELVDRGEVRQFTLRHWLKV
Sequence of D(4) dopamine receptor (P21917 whole entry): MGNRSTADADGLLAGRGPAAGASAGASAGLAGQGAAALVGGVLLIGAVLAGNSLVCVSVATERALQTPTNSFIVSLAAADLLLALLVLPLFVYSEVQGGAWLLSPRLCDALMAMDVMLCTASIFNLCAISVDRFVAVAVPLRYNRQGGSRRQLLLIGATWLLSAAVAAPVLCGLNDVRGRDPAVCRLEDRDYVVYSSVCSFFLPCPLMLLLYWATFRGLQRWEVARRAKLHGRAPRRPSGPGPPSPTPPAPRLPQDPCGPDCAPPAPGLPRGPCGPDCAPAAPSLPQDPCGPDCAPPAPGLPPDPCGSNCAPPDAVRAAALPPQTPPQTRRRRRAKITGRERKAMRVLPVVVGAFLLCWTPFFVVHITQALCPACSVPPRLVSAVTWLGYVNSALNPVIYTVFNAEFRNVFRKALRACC
Sequence of ATP-dependent translocase ABCB1 (P08183 whole entry): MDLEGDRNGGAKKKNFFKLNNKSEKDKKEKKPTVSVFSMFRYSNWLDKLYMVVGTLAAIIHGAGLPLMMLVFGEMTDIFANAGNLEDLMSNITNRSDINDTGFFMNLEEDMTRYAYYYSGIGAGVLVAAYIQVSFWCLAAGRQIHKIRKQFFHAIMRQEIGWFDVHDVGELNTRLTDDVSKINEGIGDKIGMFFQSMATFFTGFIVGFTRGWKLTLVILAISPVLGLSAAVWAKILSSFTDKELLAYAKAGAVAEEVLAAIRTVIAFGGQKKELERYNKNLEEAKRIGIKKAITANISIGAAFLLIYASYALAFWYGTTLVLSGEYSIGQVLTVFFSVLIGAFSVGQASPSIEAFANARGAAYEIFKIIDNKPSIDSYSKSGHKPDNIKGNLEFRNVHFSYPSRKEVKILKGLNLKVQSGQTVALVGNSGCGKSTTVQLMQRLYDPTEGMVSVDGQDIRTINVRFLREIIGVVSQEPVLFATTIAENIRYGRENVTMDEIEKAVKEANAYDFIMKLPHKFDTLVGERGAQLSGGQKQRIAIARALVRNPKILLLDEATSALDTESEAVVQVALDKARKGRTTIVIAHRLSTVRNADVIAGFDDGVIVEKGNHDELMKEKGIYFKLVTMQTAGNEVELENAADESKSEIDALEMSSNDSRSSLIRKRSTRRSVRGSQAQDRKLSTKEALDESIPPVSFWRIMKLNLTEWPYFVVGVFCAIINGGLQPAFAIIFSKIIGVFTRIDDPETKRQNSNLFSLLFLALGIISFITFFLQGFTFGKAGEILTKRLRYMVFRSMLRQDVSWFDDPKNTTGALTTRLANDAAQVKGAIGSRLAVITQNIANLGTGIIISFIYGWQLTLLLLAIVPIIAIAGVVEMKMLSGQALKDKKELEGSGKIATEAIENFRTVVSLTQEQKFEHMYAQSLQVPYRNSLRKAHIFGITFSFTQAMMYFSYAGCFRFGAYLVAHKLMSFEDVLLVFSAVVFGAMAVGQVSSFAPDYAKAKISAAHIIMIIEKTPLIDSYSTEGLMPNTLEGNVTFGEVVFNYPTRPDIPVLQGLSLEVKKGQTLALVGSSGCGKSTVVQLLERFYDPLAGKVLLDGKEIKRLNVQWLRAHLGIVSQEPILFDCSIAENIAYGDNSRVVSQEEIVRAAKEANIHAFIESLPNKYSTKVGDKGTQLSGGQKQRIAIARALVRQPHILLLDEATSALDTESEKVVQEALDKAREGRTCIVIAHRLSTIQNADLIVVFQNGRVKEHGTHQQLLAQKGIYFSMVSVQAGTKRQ
Sequence of Kappa-type opioid receptor (P41145 whole entry): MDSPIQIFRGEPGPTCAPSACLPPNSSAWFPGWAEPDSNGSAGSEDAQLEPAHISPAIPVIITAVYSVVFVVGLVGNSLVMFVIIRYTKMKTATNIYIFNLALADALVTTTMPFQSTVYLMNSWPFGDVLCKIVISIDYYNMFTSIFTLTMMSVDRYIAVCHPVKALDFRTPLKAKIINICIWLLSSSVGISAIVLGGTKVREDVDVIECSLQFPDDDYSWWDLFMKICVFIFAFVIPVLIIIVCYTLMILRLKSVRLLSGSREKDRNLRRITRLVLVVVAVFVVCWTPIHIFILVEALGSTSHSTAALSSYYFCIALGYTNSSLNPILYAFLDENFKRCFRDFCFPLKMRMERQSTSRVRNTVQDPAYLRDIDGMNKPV
Sequence of 5-hydroxytryptamine receptor 1E (P28566 whole entry): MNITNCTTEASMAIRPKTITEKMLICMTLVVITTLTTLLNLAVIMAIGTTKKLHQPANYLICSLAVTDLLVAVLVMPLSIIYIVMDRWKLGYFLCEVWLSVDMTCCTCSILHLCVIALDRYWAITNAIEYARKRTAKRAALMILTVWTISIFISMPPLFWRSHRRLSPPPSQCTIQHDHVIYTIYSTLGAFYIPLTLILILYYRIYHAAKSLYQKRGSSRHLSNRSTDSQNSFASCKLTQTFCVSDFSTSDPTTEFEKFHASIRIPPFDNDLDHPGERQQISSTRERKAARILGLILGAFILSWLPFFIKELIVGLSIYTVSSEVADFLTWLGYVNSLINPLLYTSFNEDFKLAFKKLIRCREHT
Sequence of Alpha-1A adrenergic receptor (P35348 whole entry): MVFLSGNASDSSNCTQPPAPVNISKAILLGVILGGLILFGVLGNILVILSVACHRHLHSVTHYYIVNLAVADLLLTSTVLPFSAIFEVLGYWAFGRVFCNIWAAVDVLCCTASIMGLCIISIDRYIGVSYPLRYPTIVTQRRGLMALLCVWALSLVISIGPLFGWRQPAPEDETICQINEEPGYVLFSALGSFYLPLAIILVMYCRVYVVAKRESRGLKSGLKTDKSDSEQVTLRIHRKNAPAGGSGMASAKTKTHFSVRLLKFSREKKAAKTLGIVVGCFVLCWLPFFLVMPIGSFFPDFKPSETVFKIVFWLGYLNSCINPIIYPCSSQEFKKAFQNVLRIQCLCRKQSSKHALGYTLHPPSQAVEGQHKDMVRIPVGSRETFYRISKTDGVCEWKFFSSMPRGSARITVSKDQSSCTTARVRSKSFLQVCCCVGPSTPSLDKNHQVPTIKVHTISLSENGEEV

COc1cccc(N2CCN(CCCCn3ncc(=O)n(C)c3=O)CC2)c1
Ki [1]: 2.58 µM | Ki [2]: > 10 µM | Ki [3]: > 10 µM | Ki [4]: > 10 µM | Ki [5]: > 10 µM | Ki [6]: > 10 µM | Ki [7]: > 10 µM | Ki [8]: > 10 µM | Ki [9]: > 10 µM | Ki [10]: > 10 µM | Ki [11]: > 10 µM | Activity [12]: Active | Ki [13]: > 10 µM | Ki [14]: > 10 µM | Ki [15]: > 10 µM | Ki [16]: > 10 µM | Ki [17]: > 10 µM | Ki [18]: > 10 µM | Ki [19]: > 10 µM | Ki [20]: > 10 µM | Ki [21]: > 10 µM | Ki [22]: > 10 µM | Ki [23]: > 10 µM | Ki [24]: > 10 µM | Ki [25]: 2.13 µM | Ki [26]: > 10 µM | Ki [27]: > 10 µM | Ki [28]: > 10 µM | Ki [29]: > 10 µM | Ki [30]: > 10 µM | Ki [31]: > 10 µM | Ki [32]: > 10 µM | Ki [33]: > 10 µM | Ki [34]: > 10 µM | Ki [35]: > 10 µM | Ki [36]: 0.18 µM | Ki [37]: 0.228 µM | Ki [38]: 0.25 µM | Ki [39]: 0.328 µM | Ki [40]: 0.378 µM | Ki [41]: 0.413 µM | Ki [42]: 0.839 µM | Ki [43]: 2.1 µM | Ki [44]: > 10 µM | EC50 [45]: 0.0003 µM | Ki [46]: 0.0011 µM | Ki [47]: 0.0337 µM | Ki [48]: 0.109 µM | Emax [49]: 95%
